{"source": "ChEMBL document CHEMBL1129988", "about": "“4-substituted cubylcarbinylamines: a new class of mechanism-based monoamine oxidase B inactivators” (J Med Chem, 1997)", "data": [{"test": "Partition ratio was determined", "values": [{"smiles": "NCC12C3C4C5C3C1C5C42", "note": "(stereo not drawn)", "Partition ratio": 152}, {"smiles": "NCC12C3C4C1C1C2C3C41C1CC1", "note": "(stereo not drawn)", "Partition ratio": 536}, {"smiles": "NCC12C3C4C1C1C2C3C41c1ccccc1", "note": "(stereo not drawn)", "Partition ratio": 277}]}]}
